Measured values taken from publication PMC4767141, “Discovery of Potent, Orally Bioavailable, Small-Molecule Inhibitors of WNT Signaling from a Cell-Based Pathway Screen” (Journal of Medicinal Chemistry, 2015).

Columns and labels:
[1] = biological target: T1, A1 (h) (Homo sapiens, UniProt P30542); experiment: CEREP binding panel; conditions: antagonist radioligand, read-out: % Inhibition of Control Specific Binding
T1 construct: purchased Millipore KinaseProfiler (kinases); Cerep (receptors and ion channels)

[2] = biological target: T2, A2A (h) (Homo sapiens, UniProt P29274); experiment: CEREP binding panel; conditions: agonist radioligand, read-out: % Inhibition of Control Specific Binding
T2 construct: purchased Millipore KinaseProfiler (kinases); Cerep (receptors and ion channels)
T2 sequence (P29274 whole entry): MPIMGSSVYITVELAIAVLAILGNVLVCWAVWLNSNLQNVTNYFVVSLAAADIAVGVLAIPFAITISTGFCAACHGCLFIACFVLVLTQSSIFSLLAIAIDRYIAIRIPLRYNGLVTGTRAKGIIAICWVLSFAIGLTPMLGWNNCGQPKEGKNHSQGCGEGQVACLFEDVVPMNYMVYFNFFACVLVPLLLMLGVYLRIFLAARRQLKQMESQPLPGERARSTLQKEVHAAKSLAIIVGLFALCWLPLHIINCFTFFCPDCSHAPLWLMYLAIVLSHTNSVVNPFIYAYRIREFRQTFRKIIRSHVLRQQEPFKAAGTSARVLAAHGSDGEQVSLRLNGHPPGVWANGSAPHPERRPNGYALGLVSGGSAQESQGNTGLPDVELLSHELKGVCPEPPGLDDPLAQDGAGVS

[3] = biological target: T3, D2S (h) (Homo sapiens, UniProt P14416); experiment: CEREP binding panel; conditions: antagonist radioligand, read-out: % Inhibition of Control Specific Binding
T3 construct: purchased Millipore KinaseProfiler (kinases); Cerep (receptors and ion channels)

[4] = biological target: T4, MC4 (h) (Homo sapiens, UniProt P32245); experiment: CEREP binding panel; conditions: agonist radioligand, read-out: % Inhibition of Control Specific Binding
T4 construct: purchased Millipore KinaseProfiler (kinases); Cerep (receptors and ion channels)
T4 sequence (P32245 whole entry): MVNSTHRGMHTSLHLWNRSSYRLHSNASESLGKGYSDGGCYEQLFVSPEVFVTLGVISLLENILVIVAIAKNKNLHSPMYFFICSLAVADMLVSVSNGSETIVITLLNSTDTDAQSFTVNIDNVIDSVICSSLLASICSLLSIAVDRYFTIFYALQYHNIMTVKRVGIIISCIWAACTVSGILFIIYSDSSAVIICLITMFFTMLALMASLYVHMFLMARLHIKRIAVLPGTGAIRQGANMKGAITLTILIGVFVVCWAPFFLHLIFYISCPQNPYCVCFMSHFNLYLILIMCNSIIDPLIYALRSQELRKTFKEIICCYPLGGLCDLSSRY

[5] = biological target: T5, M3 (h) (Homo sapiens, UniProt P20309); experiment: CEREP binding panel; conditions: antagonist radioligand, read-out: % Inhibition of Control Specific Binding
T5 construct: purchased Millipore KinaseProfiler (kinases); Cerep (receptors and ion channels)
T5 sequence (P20309 whole entry): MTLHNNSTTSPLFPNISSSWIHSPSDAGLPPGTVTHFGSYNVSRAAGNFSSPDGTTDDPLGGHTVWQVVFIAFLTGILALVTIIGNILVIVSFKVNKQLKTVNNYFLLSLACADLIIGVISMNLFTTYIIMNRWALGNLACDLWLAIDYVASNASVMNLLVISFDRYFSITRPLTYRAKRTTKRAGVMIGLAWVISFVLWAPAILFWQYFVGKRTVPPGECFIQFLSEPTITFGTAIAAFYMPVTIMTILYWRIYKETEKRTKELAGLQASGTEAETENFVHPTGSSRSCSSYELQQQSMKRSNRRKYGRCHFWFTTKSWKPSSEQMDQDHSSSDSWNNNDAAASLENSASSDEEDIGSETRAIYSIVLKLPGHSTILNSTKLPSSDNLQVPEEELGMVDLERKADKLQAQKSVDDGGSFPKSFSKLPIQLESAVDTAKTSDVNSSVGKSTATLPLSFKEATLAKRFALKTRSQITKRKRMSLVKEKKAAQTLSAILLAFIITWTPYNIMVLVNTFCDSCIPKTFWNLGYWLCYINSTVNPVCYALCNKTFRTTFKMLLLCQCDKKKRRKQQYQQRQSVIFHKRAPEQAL

[6] = biological target: T6, Y1 (h) (Homo sapiens, UniProt P25929); experiment: CEREP binding panel; conditions: agonist radioligand, read-out: % Inhibition of Control Specific Binding
T6 construct: purchased Millipore KinaseProfiler (kinases); Cerep (receptors and ion channels)

[7] = biological target: T7, 5-HT1A (h) (Homo sapiens, UniProt P08908); experiment: CEREP binding panel; conditions: agonist radioligand, read-out: % Inhibition of Control Specific Binding
T7 construct: purchased Millipore KinaseProfiler (kinases); Cerep (receptors and ion channels)
T7 sequence (P08908 whole entry): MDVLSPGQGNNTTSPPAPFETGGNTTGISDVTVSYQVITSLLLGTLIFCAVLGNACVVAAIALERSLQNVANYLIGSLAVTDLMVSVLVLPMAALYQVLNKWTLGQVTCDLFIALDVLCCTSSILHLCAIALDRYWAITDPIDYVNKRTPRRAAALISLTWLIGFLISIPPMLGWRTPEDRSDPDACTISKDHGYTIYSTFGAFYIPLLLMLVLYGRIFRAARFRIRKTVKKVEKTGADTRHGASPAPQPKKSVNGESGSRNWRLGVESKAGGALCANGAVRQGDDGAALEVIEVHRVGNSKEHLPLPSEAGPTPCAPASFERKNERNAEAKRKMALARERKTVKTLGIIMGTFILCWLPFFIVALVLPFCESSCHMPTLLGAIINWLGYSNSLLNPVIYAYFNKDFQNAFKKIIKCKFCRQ

[8] = biological target: T8, 5-HT1B (Rattus norvegicus, UniProt P28564); experiment: CEREP binding panel; conditions: antagonist radioligand, read-out: % Inhibition of Control Specific Binding
T8 construct: purchased Millipore KinaseProfiler (kinases); Cerep (receptors and ion channels)

[9] = test system: sst (non-selective); experiment: CEREP binding panel; conditions: 10 μM, agonist radioligand
[10] = test system: Ca2+ channel (L, verapamil site) (phenylalkylamine); experiment: CEREP binding panel; conditions: 10 μM, antagonist radioligand
[11] = biological target: T9, CDK2/CYCLINA (Homo sapiens, UniProt P24941); experiment: Millipore kinase panel; format: biochemical; conditions: read-out: % Control
T9 construct: purchased Millipore KinaseProfiler (kinases); Cerep (receptors and ion channels)

[12] = biological target: T10, DAPK1 (Homo sapiens, UniProt P53355); experiment: Millipore kinase panel; format: biochemical; conditions: read-out: % Control
T10 construct: purchased Millipore KinaseProfiler (kinases); Cerep (receptors and ion channels)

[13] = biological target: T11, DAPK2 (Homo sapiens, UniProt Q9UIK4); experiment: Millipore kinase panel; format: biochemical; conditions: read-out: % Control
T11 construct: purchased Millipore KinaseProfiler (kinases); Cerep (receptors and ion channels)

[14] = biological target: T12, EGFR (Homo sapiens, UniProt P00533); experiment: Millipore kinase panel; format: biochemical; conditions: read-out: % Control
T12 construct: purchased Millipore KinaseProfiler (kinases); Cerep (receptors and ion channels)

[15] = biological target: T13, EPHA5 (Homo sapiens, UniProt P54756); experiment: Millipore kinase panel; format: biochemical; conditions: read-out: % Control
T13 construct: purchased Millipore KinaseProfiler (kinases); Cerep (receptors and ion channels)

[16] = biological target: T14, EPHB1 (Homo sapiens, UniProt P54762); experiment: Millipore kinase panel; format: biochemical; conditions: read-out: % Control
T14 construct: purchased Millipore KinaseProfiler (kinases); Cerep (receptors and ion channels)

[17] = biological target: T15, FLT3 (Homo sapiens, UniProt P36888); experiment: Millipore kinase panel; format: biochemical; conditions: read-out: % Control
T15 construct: purchased Millipore KinaseProfiler (kinases); Cerep (receptors and ion channels)

[18] = biological target: T16, HIPK1 (Homo sapiens, UniProt Q86Z02); experiment: Millipore kinase panel; format: biochemical; conditions: read-out: % Control
T16 construct: purchased Millipore KinaseProfiler (kinases); Cerep (receptors and ion channels)

[19] = biological target: T17, IRAK4 (Homo sapiens, UniProt Q9NWZ3); experiment: Millipore kinase panel; format: biochemical; conditions: read-out: % Control
T17 construct: purchased Millipore KinaseProfiler (kinases); Cerep (receptors and ion channels)

[20] = biological target: T18, JAK3 (Homo sapiens, UniProt P52333); experiment: Millipore kinase panel; format: biochemical; conditions: read-out: % Control
T18 construct: purchased Millipore KinaseProfiler (kinases); Cerep (receptors and ion channels)

[21] = biological target: T19, JNK1ALPHA1 (Homo sapiens, UniProt P45983); experiment: Millipore kinase panel; format: biochemical; conditions: read-out: % Control
T19 construct: purchased Millipore KinaseProfiler (kinases); Cerep (receptors and ion channels)

[22] = biological target: T20, MET (Homo sapiens, UniProt P08581); experiment: Millipore kinase panel; format: biochemical; conditions: read-out: % Control
T20 construct: purchased Millipore KinaseProfiler (kinases); Cerep (receptors and ion channels)
T20 sequence (P08581 25-1390): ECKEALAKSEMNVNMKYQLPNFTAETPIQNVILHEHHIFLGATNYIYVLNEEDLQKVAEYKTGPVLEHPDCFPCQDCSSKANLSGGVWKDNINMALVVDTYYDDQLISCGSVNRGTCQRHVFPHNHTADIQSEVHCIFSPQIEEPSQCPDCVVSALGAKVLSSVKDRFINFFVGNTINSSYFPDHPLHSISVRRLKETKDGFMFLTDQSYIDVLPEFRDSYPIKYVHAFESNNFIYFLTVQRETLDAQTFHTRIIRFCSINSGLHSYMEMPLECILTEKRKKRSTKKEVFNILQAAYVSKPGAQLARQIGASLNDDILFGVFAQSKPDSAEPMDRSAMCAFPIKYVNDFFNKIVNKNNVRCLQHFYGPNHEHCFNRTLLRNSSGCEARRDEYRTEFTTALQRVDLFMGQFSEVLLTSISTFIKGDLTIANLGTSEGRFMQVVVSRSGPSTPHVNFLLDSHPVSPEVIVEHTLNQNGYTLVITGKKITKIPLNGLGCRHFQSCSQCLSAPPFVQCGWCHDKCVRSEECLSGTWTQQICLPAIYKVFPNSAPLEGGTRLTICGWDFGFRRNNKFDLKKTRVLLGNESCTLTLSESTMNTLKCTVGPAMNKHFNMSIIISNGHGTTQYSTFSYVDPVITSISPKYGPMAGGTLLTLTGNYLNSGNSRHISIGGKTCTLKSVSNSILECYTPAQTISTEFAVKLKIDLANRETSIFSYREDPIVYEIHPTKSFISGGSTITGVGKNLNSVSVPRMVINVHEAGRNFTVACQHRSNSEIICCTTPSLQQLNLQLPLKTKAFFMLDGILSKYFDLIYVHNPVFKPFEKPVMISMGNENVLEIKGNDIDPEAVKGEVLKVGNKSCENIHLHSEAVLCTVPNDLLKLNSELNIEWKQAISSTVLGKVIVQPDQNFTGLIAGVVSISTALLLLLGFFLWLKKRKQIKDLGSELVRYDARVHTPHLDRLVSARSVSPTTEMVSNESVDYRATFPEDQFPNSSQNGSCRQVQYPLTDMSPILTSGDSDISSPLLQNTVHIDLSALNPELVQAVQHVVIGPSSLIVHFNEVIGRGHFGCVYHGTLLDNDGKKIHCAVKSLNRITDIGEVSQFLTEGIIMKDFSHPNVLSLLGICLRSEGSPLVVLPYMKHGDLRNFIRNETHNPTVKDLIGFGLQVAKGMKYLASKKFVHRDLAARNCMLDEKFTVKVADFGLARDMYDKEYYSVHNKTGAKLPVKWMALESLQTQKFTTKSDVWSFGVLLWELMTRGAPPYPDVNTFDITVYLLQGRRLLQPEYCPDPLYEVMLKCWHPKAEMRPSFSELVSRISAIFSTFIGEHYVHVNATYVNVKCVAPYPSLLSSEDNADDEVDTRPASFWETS

[23] = biological target: T21, MRCKALPHA (Homo sapiens, UniProt Q5VT25); experiment: Millipore kinase panel; format: biochemical; conditions: read-out: % Control
T21 construct: purchased Millipore KinaseProfiler (kinases); Cerep (receptors and ion channels)

[24] = biological target: T22, MST3 (Homo sapiens, UniProt Q9Y6E0); experiment: Millipore kinase panel; format: biochemical; conditions: read-out: % Control
T22 construct: purchased Millipore KinaseProfiler (kinases); Cerep (receptors and ion channels)

[25] = biological target: T23, NEK2 (Homo sapiens, UniProt P51955); experiment: Millipore kinase panel; format: biochemical; conditions: read-out: % Control
T23 construct: purchased Millipore KinaseProfiler (kinases); Cerep (receptors and ion channels)

[26] = biological target: T24, NEK7 (Homo sapiens, UniProt Q8TDX7); experiment: Millipore kinase panel; format: biochemical; conditions: read-out: % Control
T24 construct: purchased Millipore KinaseProfiler (kinases); Cerep (receptors and ion channels)

[27] = biological target: T25, NLK (Homo sapiens, UniProt Q9UBE8); experiment: Millipore kinase panel; format: biochemical; conditions: read-out: % Control
T25 construct: purchased Millipore KinaseProfiler (kinases); Cerep (receptors and ion channels)

[28] = biological target: T26, PKG1ALPHA (Homo sapiens, UniProt Q13976); experiment: Millipore kinase panel; format: biochemical; conditions: read-out: % Control
T26 construct: purchased Millipore KinaseProfiler (kinases); Cerep (receptors and ion channels)

[29] = biological target: T27, PKD2 (Homo sapiens, UniProt Q9BZL6); experiment: Millipore kinase panel; format: biochemical; conditions: read-out: % Control
T27 construct: purchased Millipore KinaseProfiler (kinases); Cerep (receptors and ion channels)

[30] = biological target: T28, PRAK (Homo sapiens, UniProt Q8IW41); experiment: Millipore kinase panel; format: biochemical; conditions: read-out: % Control
T28 construct: purchased Millipore KinaseProfiler (kinases); Cerep (receptors and ion channels)
T28 sequence (Q8IW41 whole entry): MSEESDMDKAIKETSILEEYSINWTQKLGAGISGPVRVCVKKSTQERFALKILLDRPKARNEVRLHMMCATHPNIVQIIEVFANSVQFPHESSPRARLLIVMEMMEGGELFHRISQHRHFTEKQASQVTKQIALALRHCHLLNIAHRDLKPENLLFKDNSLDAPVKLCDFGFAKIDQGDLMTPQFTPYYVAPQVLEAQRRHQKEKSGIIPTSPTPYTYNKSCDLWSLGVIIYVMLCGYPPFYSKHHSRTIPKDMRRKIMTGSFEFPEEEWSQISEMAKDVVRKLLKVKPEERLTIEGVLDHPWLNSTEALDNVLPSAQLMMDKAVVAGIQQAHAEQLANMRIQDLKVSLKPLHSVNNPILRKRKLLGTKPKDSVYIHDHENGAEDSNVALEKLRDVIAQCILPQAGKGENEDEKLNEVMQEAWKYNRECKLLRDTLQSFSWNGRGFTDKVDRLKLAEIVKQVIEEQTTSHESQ

[31] = biological target: T29, PRKX (Homo sapiens, UniProt P51817); experiment: Millipore kinase panel; format: biochemical; conditions: read-out: % Control
T29 construct: purchased Millipore KinaseProfiler (kinases); Cerep (receptors and ion channels)

[32] = biological target: T30, CRAF (Homo sapiens, UniProt P04049); experiment: Millipore kinase panel; format: biochemical; conditions: read-out: % Control
T30 construct: purchased Millipore KinaseProfiler (kinases); Cerep (receptors and ion channels)

[33] = biological target: T31, RIPK2 (Homo sapiens, UniProt O43353); experiment: Millipore kinase panel; format: biochemical; conditions: read-out: % Control
T31 construct: purchased Millipore KinaseProfiler (kinases); Cerep (receptors and ion channels)

[34] = biological target: T32, RSK2 (Homo sapiens, UniProt P51812); experiment: Millipore kinase panel; format: biochemical; conditions: read-out: % Control
T32 construct: purchased Millipore KinaseProfiler (kinases); Cerep (receptors and ion channels)

[35] = biological target: T33, SAPK2A (Homo sapiens, UniProt Q16539); experiment: Millipore kinase panel; format: biochemical; conditions: read-out: % Control
T33 construct: purchased Millipore KinaseProfiler (kinases); Cerep (receptors and ion channels)

[36] = biological target: T34, ZAP-70 (Homo sapiens, UniProt P43403); experiment: Millipore kinase panel; format: biochemical; conditions: read-out: % Control
T34 construct: purchased Millipore KinaseProfiler (kinases); Cerep (receptors and ion channels)

[37] = biological target: T35, ZIPK (Homo sapiens, UniProt O43293); experiment: Millipore kinase panel; format: biochemical; conditions: read-out: % Control
T35 construct: purchased Millipore KinaseProfiler (kinases); Cerep (receptors and ion channels)

[38] = biological target: T36, GRK5 (Homo sapiens, UniProt P34947); experiment: Millipore kinase panel; format: biochemical; conditions: read-out: % Control
T36 construct: purchased Millipore KinaseProfiler (kinases); Cerep (receptors and ion channels)

[39] = biological target: T37, HASPIN (Homo sapiens, UniProt Q8TF76); experiment: Millipore kinase panel; format: biochemical; conditions: read-out: % Control
T37 construct: purchased Millipore KinaseProfiler (kinases); Cerep (receptors and ion channels)

[40] = biological target: T38, TAO3 (Homo sapiens, UniProt Q9H2K8); experiment: Millipore kinase panel; format: biochemical; conditions: read-out: % Control
T38 construct: purchased Millipore KinaseProfiler (kinases); Cerep (receptors and ion channels)

[41] = biological target: T39, TAO1 (Homo sapiens, UniProt Q7L7X3); experiment: Millipore kinase panel; format: biochemical; conditions: read-out: % Control
T39 construct: purchased Millipore KinaseProfiler (kinases); Cerep (receptors and ion channels)

[42] = biological target: T40, IR, ACTIVATED (Homo sapiens, UniProt P06213); experiment: Millipore kinase panel; format: biochemical; conditions: read-out: % Control
T40 construct: purchased Millipore KinaseProfiler (kinases); Cerep (receptors and ion channels)

[43] = biological target: T41, PRKAA1 (Homo sapiens, UniProt Q13131); experiment: Millipore kinase panel; format: biochemical; conditions: read-out: % Control
T41 construct: purchased Millipore KinaseProfiler (kinases); Cerep (receptors and ion channels)
T41 sequence (Q13131 whole entry): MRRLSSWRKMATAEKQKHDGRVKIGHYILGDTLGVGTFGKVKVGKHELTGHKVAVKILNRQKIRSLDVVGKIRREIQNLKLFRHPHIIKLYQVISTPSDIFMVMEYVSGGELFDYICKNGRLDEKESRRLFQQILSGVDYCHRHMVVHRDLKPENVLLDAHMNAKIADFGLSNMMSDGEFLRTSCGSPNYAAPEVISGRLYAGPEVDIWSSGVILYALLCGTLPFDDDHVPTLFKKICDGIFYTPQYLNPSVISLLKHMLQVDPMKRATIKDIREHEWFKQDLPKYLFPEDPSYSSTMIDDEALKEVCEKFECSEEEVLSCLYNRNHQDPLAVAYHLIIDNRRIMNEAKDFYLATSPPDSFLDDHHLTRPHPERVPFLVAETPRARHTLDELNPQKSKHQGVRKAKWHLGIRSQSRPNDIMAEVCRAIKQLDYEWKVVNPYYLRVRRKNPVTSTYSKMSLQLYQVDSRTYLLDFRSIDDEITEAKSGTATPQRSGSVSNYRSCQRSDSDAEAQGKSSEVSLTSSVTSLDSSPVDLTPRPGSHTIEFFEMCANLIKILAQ
T41 sequence (Q9Y478 whole entry partner): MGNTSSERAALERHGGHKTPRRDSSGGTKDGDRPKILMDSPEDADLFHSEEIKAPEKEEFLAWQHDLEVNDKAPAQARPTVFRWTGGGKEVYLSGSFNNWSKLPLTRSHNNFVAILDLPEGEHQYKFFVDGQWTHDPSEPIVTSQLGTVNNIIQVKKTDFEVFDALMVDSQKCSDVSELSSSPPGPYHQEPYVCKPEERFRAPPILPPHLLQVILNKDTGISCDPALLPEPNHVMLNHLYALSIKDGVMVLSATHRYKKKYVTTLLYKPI
T41 sequence (P54619 whole entry partner): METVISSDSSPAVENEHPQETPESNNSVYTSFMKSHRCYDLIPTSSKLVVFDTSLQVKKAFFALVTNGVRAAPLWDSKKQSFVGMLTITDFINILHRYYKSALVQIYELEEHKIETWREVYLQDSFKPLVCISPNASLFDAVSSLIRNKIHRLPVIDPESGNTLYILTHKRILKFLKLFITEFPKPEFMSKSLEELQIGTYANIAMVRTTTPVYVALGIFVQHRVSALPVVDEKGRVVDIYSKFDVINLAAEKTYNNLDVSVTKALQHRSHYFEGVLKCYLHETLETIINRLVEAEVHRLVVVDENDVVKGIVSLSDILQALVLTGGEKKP

[44] = biological target: T42, AURKB (Homo sapiens, UniProt Q96GD4); experiment: Millipore kinase panel; format: biochemical; conditions: read-out: % Control
T42 construct: purchased Millipore KinaseProfiler (kinases); Cerep (receptors and ion channels)

SMILES: Cn1cc(-c2ccc(-c3cncc(Cl)c3N3CCC4(CCNC4=O)CC3)cc2)cn1 [Compound 74, 8-(3-Chloro-5-(4-(1-methyl-1H-pyrazol-4-yl)phenyl)pyridin-4-yl)-2,8-diazaspiro[4.5]decan-1-one]
- inhibition at 10 µM [1]: -12%
- inhibition at 10 µM [2]: 22%
- inhibition at 10 µM [3]: 5%
- inhibition at 10 µM [4]: 4%
- inhibition at 10 µM [5]: 46%
- inhibition at 10 µM [6]: -7%
- inhibition at 10 µM [7]: 19%
- inhibition at 10 µM [8]: -7%
- % Inhibition of Control Specific Binding [9]: 4%
- % Inhibition of Control Specific Binding [10]: 7%
- remaining activity at 1 µM [11]: -8%
- remaining activity at 1 µM [12]: 0%
- remaining activity at 1 µM [13]: 13%
- remaining activity at 1 µM [14]: 10%
- remaining activity at 1 µM [15]: 6%
- remaining activity at 1 µM [16]: -7%
- remaining activity at 1 µM [17]: -9%
- remaining activity at 1 µM [18]: 10%
- remaining activity at 1 µM [19]: -3%
- remaining activity at 1 µM [20]: 0%
- remaining activity at 1 µM [21]: -9%
- remaining activity at 1 µM [22]: 3%
- remaining activity at 1 µM [23]: -4%
- remaining activity at 1 µM [24]: -7%
- remaining activity at 1 µM [25]: 6%
- remaining activity at 1 µM [26]: 2%
- remaining activity at 1 µM [27]: 0%
- remaining activity at 1 µM [28]: 0%
- remaining activity at 1 µM [29]: 7%
- remaining activity at 1 µM [30]: 13%
- remaining activity at 1 µM [31]: 2%
- remaining activity at 1 µM [32]: 5%
- remaining activity at 1 µM [33]: -6%
- remaining activity at 1 µM [34]: -12%
- remaining activity at 1 µM [35]: 1%
- remaining activity at 1 µM [36]: 6%
- remaining activity at 1 µM [37]: 6%
- remaining activity at 1 µM [38]: -5%
- remaining activity at 1 µM [39]: -11%
- remaining activity at 1 µM [40]: -24%
- remaining activity at 1 µM [41]: -14%
- remaining activity at 1 µM [42]: -4%
- remaining activity at 1 µM [43]: 2%
- remaining activity at 1 µM [44]: -8%
